Data taken from patent US20240099298A1, “BIOINSECTICIDAL COMPOSITIONS CONTAINING MONOTERPENES AND METHODS OF USE THEREOF” (priority 2017, published 2024).
pKd: −log10 of the molar value. Converted amounts (≈) assume the structure as drawn.

What was measured:
[1] = test system: Musca domestica (housefly); test: Median knockdown concentration (KC50) test, housefly; assay type: in vivo; conditions: Musca domestica
Excerpt: (§1) All treatments and controls were in triplicate.
(§2) Knockdown Activity of Monoterpenes.

[2] = test system: adult T. palmi; conditions: cited from earlier work
[3] = test system: T. castaneum (red flour beetle); test: Median lethal time (LT50) test, red flour beetle; assay type: in vivo, Tribolium castaneum
Excerpt: as §1
(§3) Toxicity of Monoterpenes as Fumigants. […] Therefore, to determine how fast the monoterpenes act as fumigants, it was necessary to determine their LT50 values for the target organisms.

[4] = test system: H. picinus (Nitidulid beetle); test: Median lethal time (LT50) test, Nitidulid beetle; assay type: in vivo, Haptoncus picinus
Excerpt: as §1, §3

[5] = test system: Thrips, M. usitatus; test: Headspace fumigation toxicity of linalool mixed in peanut oil; assay type: in vivo, Megalurothrips usitatus; conditions: thrips exposed to headspace above the solution
[6] = target: recombinant gamma-aminobutyric acid receptor-associated protein (rGABARAP) (Frankliniella occidentalis, UniProt A0A6J1T1Q2); test: Microscale thermophoresis (MST) binding to rGABARAP; conditions: rGABARAP; read-out: Kd value, MST
Sequence of recombinant gamma-aminobutyric acid receptor-associated protein (rGABARAP) (A0A6J1T1Q2 1-118): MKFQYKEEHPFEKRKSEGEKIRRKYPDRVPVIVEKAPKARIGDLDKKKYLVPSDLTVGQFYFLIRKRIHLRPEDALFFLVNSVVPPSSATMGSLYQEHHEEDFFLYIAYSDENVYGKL
Excerpt: Preparation of recombinant GABARAP (rGABARAP) protein. RNA was extracted from F. occidentalis and cDNA was then synthesized. GABARAP (GenBank accession No. LOC113211372) was obtained after PCR amplification (Stafford-Banks, et al. (2014) Plos One 9:e94447).
Interaction between ME and rGABARAP. A Nano Temper Monolith NT.115 MST system (Nano Temper, Munich, Germany) was used to assess the binding affinities between the target compounds and rGABARAP according to the published procedures (Zan, et al. (2020) Journal of Agricultural and Food Chemistry 68:6280-6285). Spinosyn A was used as a chemical positive control. Spinosyn A (≥1 nM) can trigger a change of the Cl^− current of insect neuron GABAAR, which is considered to be an insecticidal action mechanism of spinosyn A (Watson (2001) Pesticide Biochemistry and Physiology 71:20-28). Ovalbumin (OVA) (Sangon Biotech, Shanghai, China) is a control protein consisting of 385 amino acid residues. The interaction between OVA and ME was used as a protein control experiment (Huntington, et al. (1995) Protein Science 4:613-621).

[7] = test system: A. japonicus (parasitic wasp); test: Median lethal time (LT50) test, parasitic wasp (natural enemy); conditions: non-target parasitic wasp
Procedure: (§4) Insect Egg Parasitic Wasp (Natural Enemy). […] Both species were purchased from a commercial source. One- to two-day-old adults (after eclosion) were used for fumigation tests.
Median Lethal Time (LT50) and Median Knockdown Concentration (KC50) Tests. Five species of adult insects or natural enemies were tested for LT50 values including melon fly (B. cucuribitae), red flour beetle (T. castaneum), Nitidulidae beetle (H. picinus), parasitic wasp (A. japonicus) and housefly (M. domestica). For each treatment and control, 20 insects at the developmental stages described above were placed individually without food in a 1-L wide-mouth glass bottle (height 19.5 cm, bottom diameter 10.5 cm, mouth i.d. 5.5 cm) containing pieces of tissue paper. […] Five different concentrations of the test chemicals were placed on pieces of cellulose-based qualitative filter paper. Each of the filter papers was placed in a bottle to have 5 appropriate concentrations in serial dilutions. DDVP was the positive control, and no chemical treatments were the negative control. All treatments and controls were in triplicate. Mortality was observed periodically in a 10-30 minute interval for 2 days or until all insects died. The death was defined as no movement when the insects were touched.

[8] = test system: Megalurothrips usitatus (Bagrall) (thrips); test: Median lethal concentration fumigation test, thrips; conditions: adult thrips, exposed one hour, mortality observed in 24 hours
Excerpt: (§5) Median Lethal Concentration Tests. […] The species tested included Thrips (M. usitatus), spider mite (T. cinnabarinus), melon fly (B. cucuribitae), cockroach (B. lateralis), housefly (M. domestica), mosquito (A. aegypti), parasitic wasp (T. chilonis) and fruit fly (Drosophila melanogaster). After being exposed to the test chemicals for one hour, adult Thrips, spider mites, and roaches were transferred to another flask. In addition to fresh water, adult Thrips, spider mites, and roaches were then respectively fed with cowpea, fresh blade of eggplant, and peanut oil via filter. […] Mortality of melon fly was observed after three hours of exposure.

[9] = test system: T. chilonis (parasitic wasp); conditions: non-target parasitic wasp, mortality after 15 minutes of exposure
Excerpt: as §4, §5

[10] = test system: B. cucuribitae (melon fly); test: Median lethal time (LT50) test, melon fly; assay type: in vivo, Bactrocera cucuribitae
Excerpt: as §1, §3

[11] = test system: Aedes aegypti (mosquito); test: Median knockdown concentration (KC50) test, mosquito; assay type: in vivo
Excerpt: as §1, §2

[12] = T 22-25 °C; cited from earlier work
[13] = target: rGABARAP^Y174A (Frankliniella occidentalis, UniProt A0A6J1T1Q2); test: ITC binding to rGABARAP mutant; conditions: read-out: Kd value, ITC
Sequence of rGABARAP^Y174A (A0A6J1T1Q2 entry or part of it, stated change not applied): as the sequence (A0A6J1T1Q2 1-118) above
Procedure: The isothermal titration thermal binding measurements were performed with an ITC-200 calorimeter (GE Healthcare, Boston, MA) at 25° C. in a buffer containing 50 mM Tris-HCl and 100 mM NaCl (pH 7.4). […] The MicroCal Origin 7.0 software system was used for data processing. The first run was a pre-run and was excluded from the final data. The amount of protein in the sample pool was constant. […] The experimental bimolecular interaction data from the 18 drops were used to calculate the dissociation constant. The dissociation constant […] was calculated as 1/K (Li, et al. (2018) RSC Advances 8:18952-18958).
Preparation of rGABARAP Mutant and Interaction Between ME and rGABARAP Mutant. […] DNAman was used to convert the nucleic acid sequence into an amino acid sequence and find the Y174 site. Y174 was mutated to A174. The rGABARAP mutant gene loaded into the pMCSG19 vector and the His tags at both ends of the sequence were retained to construct a prokaryotic expression plasmid. The carrier contained a maltose binding protein (MBP) tag that was not cut for verification. However, MBP and ME were used as treatment controls. The mutant plasmid was constructed in Sangon Biotech (Shanghai, China). The protein expression, purification, and desalting procedures of rGABARAP^Y174A mutant and rGABARAP were the same. Subsequently, the binding kinetics of ME and rGABARAP^Y174A were tested by MST and ITC.

C=CC(C)(O)CCC=C(C)C (stereo not shown) [Linalool, 3,7-dimethylocta-1,6-dien-3-o1]
KC50 (fiducial limits) ([1]; 20 Minutes): >243 µg/mL | KC50 (fiducial limits) ([1]; 30 Minutes): 192 µg/mL | LC50, fumigation toxicity [2]: 5.5 µg/mL (≈ 35.7 µM) | fold more effective than dichlorvos [2]: 15.2 fold | LT50 (fiducial limits) [3]: 35.1 h | LT50 (fiducial limits) [4]: 1.58 h | LC50 of linalool mixed in peanut oil [5]: 4.7% | pKd [6]: 4.91 | LT50 (fiducial limits) against A. japonicus [7]: 0.788 (0.71-0.86) hour | LC50 (fiducial limits) [8]: 2.50 µg/mL (≈ 16.2 µM) | LC90 (fiducial limits) [8]: 6.4 µg/mL (≈ 41.5 µM) | LC50 (fiducial limits) against T. chilonis [9]: 2.88 µg/mL (≈ 18.7 µM) | LC90 (fiducial limits) against T. chilonis [9]: 6.24 µg/mL (≈ 40.5 µM) | LT50 (fiducial limits) [10]: 2.05 h | time within which the insects responded [11]: ≤ 20 min | KC50 (fiducial limits) ([11]; 20 Minutes): >243 µg/mL | KC50 (fiducial limits) ([11]; 30 Minutes): 69.0 µg/mL | Vp (Pa)/T (° C.) [12]: 21.28/22-25 Pa | pKd [13]: 5.05
